# Reference: ChEMBL document CHEMBL4715724, “Novel 5-substituted-2-anilinoquinolines with 3-(morpholino or 4-methylpiperazin-1-yl)propoxy moiety as broad spectrum antiproliferative agents: Synthesis, cell based assays and kinase screening” (Bioorg Med Chem Lett, 2016)
# Legend:
# [1] = test system: PI3-kinase p110-alpha/p85-alpha (Homo sapiens), P27986+P42336 [E545K]; test: Inhibition of p110alpha/p85alpha E545K mutant (unknown origin) at 10 uM relative to control; type: protein-complex assay
# [2] = biological target: Serine/threonine-protein kinase 3 (Homo sapiens) (UniProt Q13188); test: Inhibition of recombinant N-terminal His6-tagged human MST2 (2 to end residues) expressed in baculovirus infected Sf21 insect cells at 10 uM relative to control
# Sequence of Serine/threonine-protein kinase 3 (Homo sapiens) (Q13188 whole entry): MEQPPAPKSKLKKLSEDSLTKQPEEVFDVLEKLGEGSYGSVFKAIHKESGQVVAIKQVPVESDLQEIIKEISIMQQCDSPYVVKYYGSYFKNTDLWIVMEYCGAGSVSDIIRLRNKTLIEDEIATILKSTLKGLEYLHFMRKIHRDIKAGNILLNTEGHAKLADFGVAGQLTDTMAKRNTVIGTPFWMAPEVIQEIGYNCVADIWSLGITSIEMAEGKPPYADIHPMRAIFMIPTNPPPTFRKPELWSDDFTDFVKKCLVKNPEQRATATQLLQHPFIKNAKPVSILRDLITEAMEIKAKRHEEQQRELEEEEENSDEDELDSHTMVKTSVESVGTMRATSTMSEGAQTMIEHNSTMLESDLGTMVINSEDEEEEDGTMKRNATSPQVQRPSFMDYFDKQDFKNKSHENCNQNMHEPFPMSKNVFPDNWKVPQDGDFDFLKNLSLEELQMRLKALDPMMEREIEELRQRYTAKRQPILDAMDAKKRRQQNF
# [3] = biological target: Epidermal growth factor receptor (Homo sapiens) (UniProt P00533); test: Inhibition of N-terminal GST-tagged human EGFR (696 to end residues) expressed in baculovirus-infected Sf21 cells assessed as residual activity at 10 uM relative to control
# Sequence of Epidermal growth factor receptor (Homo sapiens) (P00533 whole entry): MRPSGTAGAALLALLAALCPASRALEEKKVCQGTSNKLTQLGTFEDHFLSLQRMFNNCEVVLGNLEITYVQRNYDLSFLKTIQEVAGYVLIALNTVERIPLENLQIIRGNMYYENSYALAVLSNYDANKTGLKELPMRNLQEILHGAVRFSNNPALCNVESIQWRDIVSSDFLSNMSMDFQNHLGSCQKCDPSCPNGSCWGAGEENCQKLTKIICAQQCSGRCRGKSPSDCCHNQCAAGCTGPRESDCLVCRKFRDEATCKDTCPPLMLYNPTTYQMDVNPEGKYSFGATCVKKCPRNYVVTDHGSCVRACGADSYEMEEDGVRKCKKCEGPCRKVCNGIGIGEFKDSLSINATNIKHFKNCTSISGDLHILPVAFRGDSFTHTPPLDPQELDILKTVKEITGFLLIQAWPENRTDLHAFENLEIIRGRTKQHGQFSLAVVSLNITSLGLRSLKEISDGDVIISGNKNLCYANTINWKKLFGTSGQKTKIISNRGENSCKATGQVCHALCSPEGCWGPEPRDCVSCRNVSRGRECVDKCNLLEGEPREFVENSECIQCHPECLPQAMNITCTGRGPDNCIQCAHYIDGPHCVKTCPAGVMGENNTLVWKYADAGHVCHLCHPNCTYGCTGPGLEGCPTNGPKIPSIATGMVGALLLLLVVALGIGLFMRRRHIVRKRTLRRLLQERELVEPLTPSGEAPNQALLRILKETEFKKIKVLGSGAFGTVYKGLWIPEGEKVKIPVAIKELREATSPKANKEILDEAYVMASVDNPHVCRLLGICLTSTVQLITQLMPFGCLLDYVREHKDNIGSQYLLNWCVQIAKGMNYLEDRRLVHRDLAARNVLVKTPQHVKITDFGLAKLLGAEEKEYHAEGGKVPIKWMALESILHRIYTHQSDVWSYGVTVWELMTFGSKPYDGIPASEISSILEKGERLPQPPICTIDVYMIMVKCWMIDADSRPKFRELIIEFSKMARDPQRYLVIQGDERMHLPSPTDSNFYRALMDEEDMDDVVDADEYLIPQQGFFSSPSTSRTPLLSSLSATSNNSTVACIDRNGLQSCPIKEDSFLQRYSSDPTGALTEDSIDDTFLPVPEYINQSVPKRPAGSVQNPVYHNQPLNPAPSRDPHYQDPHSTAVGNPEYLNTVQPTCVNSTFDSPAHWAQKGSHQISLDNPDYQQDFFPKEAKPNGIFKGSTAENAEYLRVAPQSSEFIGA
# [4] = biological target: Calcium/calmodulin-dependent protein kinase type II subunit beta (Homo sapiens) (UniProt Q13554); test: Inhibition of CaMK2beta (unknown origin) at 10 uM relative to control
# Sequence of Calcium/calmodulin-dependent protein kinase type II subunit beta (Homo sapiens) (Q13554 whole entry): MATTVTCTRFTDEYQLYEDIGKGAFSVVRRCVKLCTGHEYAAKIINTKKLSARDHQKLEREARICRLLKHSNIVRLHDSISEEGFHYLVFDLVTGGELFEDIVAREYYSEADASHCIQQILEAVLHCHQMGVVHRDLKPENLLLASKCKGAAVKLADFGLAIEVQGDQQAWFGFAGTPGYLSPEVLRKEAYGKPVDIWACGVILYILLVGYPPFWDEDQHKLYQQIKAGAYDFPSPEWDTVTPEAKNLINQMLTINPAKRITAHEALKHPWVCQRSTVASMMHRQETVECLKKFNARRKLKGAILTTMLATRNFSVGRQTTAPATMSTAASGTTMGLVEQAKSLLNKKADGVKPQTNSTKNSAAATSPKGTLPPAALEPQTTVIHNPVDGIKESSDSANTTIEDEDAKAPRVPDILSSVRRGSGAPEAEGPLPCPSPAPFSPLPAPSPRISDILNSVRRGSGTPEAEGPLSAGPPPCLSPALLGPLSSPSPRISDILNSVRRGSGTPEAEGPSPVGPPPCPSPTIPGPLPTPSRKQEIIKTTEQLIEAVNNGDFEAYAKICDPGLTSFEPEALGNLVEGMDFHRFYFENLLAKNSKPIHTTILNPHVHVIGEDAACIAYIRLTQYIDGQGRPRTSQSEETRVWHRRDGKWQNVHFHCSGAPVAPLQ
# HT-29 = test: cells; type: functional; settings: Homo sapiens, time 48 hrs
# Description: Growth inhibition of human HT-29 cells incubated for 48 hrs by sulforhodamine B assay
# SF-295 = test: cells; type: functional; settings: Homo sapiens, time 48 hrs
# Description: Growth inhibition of human SF-295 cells incubated for 48 hrs by sulforhodamine B assay
# [5] = biological target: Tyrosine-protein kinase BTK (Homo sapiens) (UniProt Q06187); test: Inhibition of recombinant full length N-terminal His6-tagged human BTK expressed in baculovirus infected Sf21 cells assessed as residual activity at 10 uM relative to control
# Sequence of Tyrosine-protein kinase BTK (Homo sapiens) (Q06187 whole entry): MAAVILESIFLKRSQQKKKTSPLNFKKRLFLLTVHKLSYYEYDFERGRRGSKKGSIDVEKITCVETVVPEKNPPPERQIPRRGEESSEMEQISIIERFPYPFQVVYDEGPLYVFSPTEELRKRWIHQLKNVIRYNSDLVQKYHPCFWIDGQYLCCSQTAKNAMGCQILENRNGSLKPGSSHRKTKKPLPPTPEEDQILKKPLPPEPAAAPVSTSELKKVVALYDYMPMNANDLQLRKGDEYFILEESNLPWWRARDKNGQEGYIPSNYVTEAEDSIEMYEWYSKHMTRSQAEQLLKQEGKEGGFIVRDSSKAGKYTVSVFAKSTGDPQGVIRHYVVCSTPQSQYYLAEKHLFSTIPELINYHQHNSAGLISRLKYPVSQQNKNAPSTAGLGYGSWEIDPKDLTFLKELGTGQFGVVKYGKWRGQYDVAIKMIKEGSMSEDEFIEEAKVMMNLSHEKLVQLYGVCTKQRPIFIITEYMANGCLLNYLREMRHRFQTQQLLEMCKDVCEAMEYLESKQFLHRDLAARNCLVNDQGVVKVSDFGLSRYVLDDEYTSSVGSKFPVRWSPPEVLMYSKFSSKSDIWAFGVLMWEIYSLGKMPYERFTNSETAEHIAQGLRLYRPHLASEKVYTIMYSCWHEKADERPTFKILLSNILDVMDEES
# [6] = biological target: Ribosomal protein S6 kinase alpha-1 (Homo sapiens) (UniProt Q15418); test: Inhibition of recombinant full length N-terminal His6-tagged human RSK1 expressed in Sf21 insect cells at 10 uM relative to control
# Sequence of Ribosomal protein S6 kinase alpha-1 (Homo sapiens) (Q15418 whole entry): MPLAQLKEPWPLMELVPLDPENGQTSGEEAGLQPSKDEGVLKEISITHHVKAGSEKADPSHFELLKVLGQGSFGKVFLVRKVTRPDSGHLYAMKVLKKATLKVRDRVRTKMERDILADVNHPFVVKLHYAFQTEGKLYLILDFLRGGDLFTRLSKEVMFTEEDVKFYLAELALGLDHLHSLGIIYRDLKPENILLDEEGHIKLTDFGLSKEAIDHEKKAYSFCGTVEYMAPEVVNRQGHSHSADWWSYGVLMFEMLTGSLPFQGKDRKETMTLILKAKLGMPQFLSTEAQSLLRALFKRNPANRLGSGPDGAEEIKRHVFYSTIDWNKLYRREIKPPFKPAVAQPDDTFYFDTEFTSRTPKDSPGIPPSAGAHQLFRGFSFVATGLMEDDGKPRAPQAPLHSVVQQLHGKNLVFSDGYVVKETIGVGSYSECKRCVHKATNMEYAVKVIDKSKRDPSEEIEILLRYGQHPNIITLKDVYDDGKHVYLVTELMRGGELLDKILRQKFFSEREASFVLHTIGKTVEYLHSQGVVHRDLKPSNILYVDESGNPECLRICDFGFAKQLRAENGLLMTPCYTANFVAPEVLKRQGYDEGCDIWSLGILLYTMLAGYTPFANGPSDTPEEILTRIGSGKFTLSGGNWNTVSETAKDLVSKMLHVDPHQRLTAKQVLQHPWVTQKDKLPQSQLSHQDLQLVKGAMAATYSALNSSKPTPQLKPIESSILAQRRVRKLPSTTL
# [7] = test system: Panel melanoma (Carcinoma cell lines); test: cells; type: functional; settings: Homo sapiens, time 48 hrs
# Description: Growth inhibition of human Panel melanoma (Carcinoma cell lines) incubated for 48 hrs by sulforhodamine B assay
# [8] = biological target: PI3-kinase p110-alpha/p85-alpha (Homo sapiens) (UniProt P27986+P42336); test: Inhibition of p110 alpha/p85 alpha (unknown origin) at 10 uM relative to control; type: protein-complex assay
# [9] = test system: PI3-kinase p110-alpha/p85-alpha (Homo sapiens), P27986+P42336 [H1047R]; test: Inhibition of p110alpha/p85alpha H1047R mutant (unknown origin) at 10 uM relative to control; type: protein-complex assay
# UACC-62 = test: cells; type: functional; settings: Homo sapiens, time 48 hrs
# Description: Growth inhibition of human UACC-62 cells incubated for 48 hrs by sulforhodamine B assay
# [10] = test system: Panel leukemia (Carcinoma cell lines); test: cells; type: functional; settings: Homo sapiens, time 48 hrs
# Description: Growth inhibition of human Panel leukemia (Carcinoma cell lines) incubated for 48 hrs by sulforhodamine B assay
# RXF 393 = test: cells; type: functional; settings: Homo sapiens, time 48 hrs
# Description: Growth inhibition of human RXF 393 cells incubated for 48 hrs by sulforhodamine B assay
# [11] = biological target: Insulin-like growth factor 1 receptor (Homo sapiens) (UniProt P08069); test: Inhibition of human IGF1R assessed as residual activity at 10 uM relative to control
# PC-3 = test: cells; type: functional; settings: Homo sapiens, time 48 hrs
# Description: Growth inhibition of human PC-3 cells incubated for 48 hrs by sulforhodamine B assay
# [12] = biological target: Mitogen-activated protein kinase 1 (Homo sapiens) (UniProt P28482); test: Inhibition of recombinant full length N-terminal GST-tagged human MAPK1 expressed in Escherichia coli at 10 uM relative to control
# Sequence of Mitogen-activated protein kinase 1 (Homo sapiens) (P28482 whole entry, the tested form may be a part): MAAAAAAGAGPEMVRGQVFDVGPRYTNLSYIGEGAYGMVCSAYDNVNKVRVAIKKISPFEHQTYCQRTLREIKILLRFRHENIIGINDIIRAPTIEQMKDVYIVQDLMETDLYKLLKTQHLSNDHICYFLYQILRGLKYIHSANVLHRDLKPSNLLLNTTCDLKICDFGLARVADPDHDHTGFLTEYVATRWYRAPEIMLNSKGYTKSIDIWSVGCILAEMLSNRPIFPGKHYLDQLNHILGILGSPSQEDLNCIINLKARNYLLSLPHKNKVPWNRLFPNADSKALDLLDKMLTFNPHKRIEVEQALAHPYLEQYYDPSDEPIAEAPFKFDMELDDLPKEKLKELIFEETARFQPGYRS
# [13] = test system: Serine/threonine-protein kinase B-raf (Homo sapiens), P15056 [V600E]; test: Inhibition of recombinant N-terminal GST-tagged human BRAF V599E mutant (417 to 766 residues) expressed in Sf9 cells assessed as residual activity at 10 uM relative to control
# Sequence of Serine/threonine-protein kinase B-raf (Homo sapiens), P15056 [V600E] (P15056 whole entry V600E, the tested form may be a part): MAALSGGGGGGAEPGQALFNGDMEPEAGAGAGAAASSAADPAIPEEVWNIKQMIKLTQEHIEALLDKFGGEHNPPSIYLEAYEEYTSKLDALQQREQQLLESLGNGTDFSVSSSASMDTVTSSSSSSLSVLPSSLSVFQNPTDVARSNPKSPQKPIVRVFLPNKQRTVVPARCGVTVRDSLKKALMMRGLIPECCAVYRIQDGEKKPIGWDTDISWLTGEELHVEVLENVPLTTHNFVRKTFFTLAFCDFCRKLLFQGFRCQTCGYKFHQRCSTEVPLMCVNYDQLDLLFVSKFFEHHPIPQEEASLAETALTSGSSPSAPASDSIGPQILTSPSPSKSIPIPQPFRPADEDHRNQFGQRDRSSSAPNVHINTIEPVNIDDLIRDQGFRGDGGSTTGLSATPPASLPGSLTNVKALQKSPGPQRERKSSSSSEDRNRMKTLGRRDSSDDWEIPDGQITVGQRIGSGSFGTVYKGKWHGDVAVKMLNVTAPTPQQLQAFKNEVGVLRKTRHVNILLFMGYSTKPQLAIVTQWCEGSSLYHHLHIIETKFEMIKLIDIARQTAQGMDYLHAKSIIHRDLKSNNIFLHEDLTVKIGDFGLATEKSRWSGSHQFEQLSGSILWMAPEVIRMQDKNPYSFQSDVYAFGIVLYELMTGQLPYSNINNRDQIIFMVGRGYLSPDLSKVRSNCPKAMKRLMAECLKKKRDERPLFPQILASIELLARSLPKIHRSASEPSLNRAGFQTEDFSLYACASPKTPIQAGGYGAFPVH
smiles,measurement,setting,value
CN1CCN(CCCOc2cccc3nc(Nc4ccc(Cl)c(C(F)(F)F)c4)ccc23)CC1,inhibition,[1],< 60%
same,inhibition,[2],< 60%
same,Activity,[3],< 60%
same,inhibition,[4],< 60%
same,GI50,HT-29,1120 nM
same,GI50,SF-295,1800 nM
same,Activity,[5],< 60%
same,inhibition,[6],< 60%
same,GI50,[7],1710 nM
same,LC50,[7],6700 nM
same,TGI,[7],3380 nM
same,inhibition,[8],< 60%
same,inhibition,[9],< 60%
same,GI50,UACC-62,1720 nM
same,GI50,[10],1380 nM
same,LC50 (50% lethal concentration),[10],7780 nM
same,TGI,[10],3480 nM
same,GI50,RXF 393,1630 nM
same,Activity,[11],< 60%
same,GI50,PC-3,1570 nM
same,inhibition,[12],< 60%
same,Activity,[13],< 60%
